The subject of assay [1] is eukaryotic translation initiation factor 2 alpha (eIF2α). As to the kind of experiment: eIF2α phosphorylation by immunofluorescence with phosphoneoepitope-specific antibody. Type of assay: cell-based, human. The note with it: U2OS; 10, 50 or 100 nM; 6 hours. The method, then:
(§1) Human osteosarcoma U2OS cells were treated with 10, 50 or 100 nM lurbinectedin (Lurbi) for 6 hours. Thapsigargin (Thaps, 3 μM) was used as a positive control. The cells were fixed with 3.7% PFA and DNA was stained with 1 μM Hoechst 33342. Following the phosphorylation of the eukaryotic translation initiation factor 2 alpha (eIF2a) was assessed with phosphoneoepitope-specific antibody and was monitored by means of automated microscopy as an increase in cytoplasmic fluorescence intensity. (a,b) The level of transcription was measured in U2OS cell treated as above with Lurbi. The transcription inhibitor actinomycin D (ActD) was used as a control. The cells were fixed as above and following the colocalization of nucleolin and fibrillarin was assessed as an indicator for transcriptional activity (c,d) Scale bar equals 10 μm and bar charts depict mean values±SD of quadruplicate assessments (*p<0.01; *p<0.001, two-tailed Student's t test).
(§2) In a systematic screening campaign, the capacity of lurbinectedin to induce immunogenic cell death in cancer cells was assessed in human osteosarcoma U2OS cells stably expressing fluorescent biosensors for the detection of CALR-relocation (as a surrogate marker for CALR surface exposure), HMGB1 release and Type I IFN responses together with U2OS WT cells stained with the ATP-sensitive dye quinacrine. […]

The test system of assay [2] is mRNA transcription in U2OS cells. Put plainly: Transcription level by nucleolin/fibrillarin colocalization. Type of assay: cell-based, human. As to conditions: 10, 50 or 100 nM, actinomycin D as control. The method, then:
as §1, §2

A further assay has as its system MCA205 fibrosarcoma. Put plainly: Anticancer vaccination with lurbinectedin-treated dying MCA205 cells and rechallenge. Type of assay: in vivo, immunocompetent C57BL/6 mice. As to conditions: MCA205 cells treated with 1 μM lurbinectedin injected s.c., rechallenge with live cells one week later. The protocol: MCA205 cells treated for 20 h with 1 μM lurbinectedin were inoculated subcutaneously (s.c.) into immunocompetent C57BL/6 mice, which were rechallenged 7 days later s.c. with living cells of the same type. The tumour growth was measured until endpoints were reached and overall survival was evaluated regularly for the following 30 days (n=6). (*p<. 01, two-tailed Student's t test, compared to all other groups). Data were analyzed with TumGrowth.
In order to assess the capacity of lurbinectedin to stimulate anticancer immunity in a monotherapeutic approach and to convert tumour cells into a therapeutic vaccine we exposed murine fibrosarcoma cells to the drug in vitro (in conditions previously established to induce a sufficient amplitude of cell death) and then injected the dying cancer cells into syngeneic immunocompetent mice. […] Next we evaluated the effect of lurbinectedin on established cancers growing on immunocompetent or immunodeficient mice. […]
Six- to eight-week-old female wild-type C57BL/6 and nu/nu mice were obtained from Envigo France (Huntingdon, UK) and were kept in the animal facility at the Gustave Roussy Campus Cancer in a specific pathogen-free and temperature-controlled environment with 12 h day, 12 h night cycles and received food and water ad libitum. […] Animals were monitored and tumour growth documented regularly until end-points were reached. […]

The text below walks through data of patent US20250295656A1, “COMBINATION OF LURBINECTEDIN AND IMMUNE CHECKPOINT INHIBITORS” (priority 2020, published 2025).

`COc1ccc2[nH]c3c(c2c1)CCN[C@]31CS[C@@H]2c3c(OC(C)=O)c(C)c4c(c3[C@H](COC1=O)N1[C@@H]2[C@H]2c3c(cc(C)c(OC)c3O)C[C@@H]([C@@H]1O)N2C)OCO4` [lurbinectedin]: the “phosphorylation of eIF2α” value in assay [1] is listed as “dose-dependent phosphorylation”. Besides, the “mRNA transcription (dissociation of nucleolin and fibrillarin)” value in assay [2] is recorded as “inhibited mRNA transcription at a level comparable to a known transcription-inhibitor”. Further, the “overall survival after rechallenge” value in the assay with MCA205 fibrosarcoma is “increase”. Further, in the assay on MCA205 fibrosarcoma (p=0.0094), the “tumour growth after rechallenge” value was “significantly reduced”.
